In publication PMC11596062, “Substrate Specificity of ABCB Transporters Predicted by Docking Simulations Can Be Confirmed by Experimental Tests” (Molecules, 2024):

How the values were obtained:
OfABCB2 = test system: T1, OfABCB2; assay: vanadate-sensitive ATPase assay, phosphate release, Sf9 membranes; type: biochemical, Oncopeltus fasciatus; details: substrate-stimulated ATPase; difference without / with 500 µM vanadate; 0-800 µM in 2% DMSO; 37 °C; read-out: Km Values [μM] ± SE / OfABCB2
T1 construct: full-length cds (3984 bp, 1327 aa), baculovirus pFBD in Sf9 cells, isolated cell membranes; no tag mentioned
Excerpt: vanadate-sensitive ATPase assay, phosphate release, Sf9 membranes on OfABCB2

OfABCB1 = details: read-out: Km Values [μM] ± SE / OfABCB1; substrate-stimulated ATPase; difference without / with 500 µM vanadate; 0-800 µM in 2% DMSO; 37 °C
Excerpt: vanadate-sensitive ATPase assay, phosphate release, Sf9 membranes on OfABCB1

Structure (SMILES)	Km (OfABCB2) [µM]	Km (OfABCB1) [µM]
C[C@@H]1O[C@@H](O[C@H]2C[C@@H](O)[C@]3(CO)[C@H]4[C@H](O)C[C@]5(C)[C@@H](C6=CC(=O)OC6)CC[C@]5(O)[C@@H]4CC[C@]3(O)C2)[C@H](O)[C@H](O)[C@H]1O [ouabain]	7.05 ± 2.61	–
C[C@H]1O[C@@H](O[C@H]2[C@@H](O)C[C@H](O[C@H]3[C@@H](O)C[C@H](O[C@H]4CC[C@@]5(C)[C@H](CC[C@@H]6[C@@H]5C[C@@H](O)[C@]5(C)[C@@H](C7=CC(=O)OC7)CC[C@]65O)C4)O[C@@H]3C)O[C@@H]2C)C[C@H](O)[C@@H]1O [digoxin]	9.33 ± 2.43	33.7 ± 11.4
